What was measured:
[1] = stability against hydrolysis; type: physicochemical; details: dissolved in aqueous (25%) tetrahydrofuran, under reflux
Description: When the R1-5 -groups form Bi--C bonds, aryl grou7ps are generally preferred. At least one of the R1-5 -groups should be an aryl group or substituted aryl group. The term "aryl group" here means any aromatic hydrocarbon ring system or aromatic heterocyclic system. Typical ring systems include for example benzene, naphthalene, indene, fluorene, phenalene, phenanthrene, anthracene, fluoranthene, acephenanthrylene, aceanthrylene, triphenylene, pyrene, chrysene, naphthacene, pleiadene, picene, perylene, pentaphene, pentacene, tetraphenylene, hexaphene, hexacene, rubicene, coronene, trinaphthylene, heptaphene, rubicene, coronene, heptacene, pyranthrene, ovalene, furan, thiophene, thianthrene, pyran, isobenzofuran, chromene, xanthene, phenoxathin, pyrrole, imidazole, pyrazole, isothiazole, isoxazole, pyridine, pyrazine, pyrimidine, pyradizine, indolizine, isoindole, indole, indazole, purine, quinolizine, isocaunoline, quinoline, phtalazine, naphyhyridine, quinoxaline, quinazoline, cinnoline, pteridine, carbazole, β-carboline, phenanthridine, acridine, permidine, phenanthroline, phenazine, phenarsazine, phenothiazine, furazan, phenoxazine, isochroman, chroman, indoline and iso-indoline.

Helicobacter pylori = test: Minimal Inhibitory Concentrations against Helicobacter pylori on agar plates; type: cell-based
Experimental: Activity of bismuth compounds against Helicobarter pylori
Various bismuth compounds were tested in different concentrations against Helicobacter pylori on agar plates. Minimal Inhibitory Concentrations (MIC--values) are given in mg substance per litre.

| Compound | stability against hydrolysis [1] | Minimal Inhibitory Concentration (MIC - value) (Helicobacter pylori) [mg substance per litre] |
| --- | --- | --- |
| c1cc[c]([Bi]([c]2ccccc2)[c]2ccccc2)cc1 [triphenylbismuth] | stable under reflux for many days |  |
| Triphenylbismuthine difluoride [Example 16] |  | 8 |
| Tris(2,4,6trimethylphenyl)bismuthine dichloride [Example 15] |  | ≤ 0.25 |
| O=[N+]([O-])[O-].O=[N+]([O-])[O-].O=[N+]([O-])[O-].O=[N+]([O-])[O-].[Bi+3].[Bi+3].[Bi+3].[Bi+3].[Bi+3].[O-2].[OH-].[OH-].[OH-].[OH-].[OH-].[OH-].[OH-].[OH-].[OH-] [Bismuth subnitrate, bismuth hydroxide nitrate oxide] |  | 32 |
